Data: US20230117470A1, “SUBSTITUTED PYRAZOLE COMPOUNDS AS TOLL RECEPTOR INHIBITORS” (BRISTOL-MYERS SQUIBB COMPANY, priority 2019, published 2023)

Columns and labels:
Type in all cases: cell-based
human TLR9 = target: T1, human TLR9 (Homo sapiens, UniProt Q9NR96); experiment: TLR9 inhibition reporter assay (HEK-Blue cells, SEAP reporter, ODN2006 stimulation); details: HEK-Blue cells overexpressing human TLR9, SEAP reporter, ODN2006 5 nM
T1 construct: host or cells: HEK-Blue cells
T1 sequence (Q9NR96 26-1032): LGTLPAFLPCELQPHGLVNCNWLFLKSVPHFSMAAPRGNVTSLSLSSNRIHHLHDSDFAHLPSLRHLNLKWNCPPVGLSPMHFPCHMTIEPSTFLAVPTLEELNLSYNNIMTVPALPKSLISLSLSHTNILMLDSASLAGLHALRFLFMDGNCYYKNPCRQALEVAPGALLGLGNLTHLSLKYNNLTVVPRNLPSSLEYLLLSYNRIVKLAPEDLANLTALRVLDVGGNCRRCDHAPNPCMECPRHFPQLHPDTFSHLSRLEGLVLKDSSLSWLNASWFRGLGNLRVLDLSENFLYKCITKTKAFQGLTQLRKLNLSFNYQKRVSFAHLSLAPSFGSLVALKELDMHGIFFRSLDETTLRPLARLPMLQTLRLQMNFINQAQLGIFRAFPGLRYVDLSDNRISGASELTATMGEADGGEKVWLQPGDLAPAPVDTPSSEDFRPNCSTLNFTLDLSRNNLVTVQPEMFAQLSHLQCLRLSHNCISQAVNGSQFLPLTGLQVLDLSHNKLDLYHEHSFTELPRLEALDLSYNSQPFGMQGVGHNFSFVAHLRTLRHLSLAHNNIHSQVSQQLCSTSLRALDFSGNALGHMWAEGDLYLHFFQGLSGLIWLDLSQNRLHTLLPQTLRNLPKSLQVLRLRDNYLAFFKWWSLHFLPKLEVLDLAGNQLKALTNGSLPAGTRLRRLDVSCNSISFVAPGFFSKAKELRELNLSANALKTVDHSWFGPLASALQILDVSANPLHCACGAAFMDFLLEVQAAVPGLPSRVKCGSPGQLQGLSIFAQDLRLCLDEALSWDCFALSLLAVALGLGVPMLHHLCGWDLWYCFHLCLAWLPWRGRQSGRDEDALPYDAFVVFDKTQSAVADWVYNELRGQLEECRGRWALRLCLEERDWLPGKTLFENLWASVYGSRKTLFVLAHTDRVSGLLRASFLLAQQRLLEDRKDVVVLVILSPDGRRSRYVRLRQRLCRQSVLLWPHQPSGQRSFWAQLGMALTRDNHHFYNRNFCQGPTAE
Procedure: (§1) TLR7/8/9 Inhibition Reporter Assays
(§2) HEK-Blue™-cells (Invivogen) overexpressing human TLR7, TLR8 or TLR9 receptors were used for screening inhibitors of these receptors using an inducible SEAP (secreted embryonic alkaline phosphatase) reporter gene under the control of the IFN-β minimal promoter fused to five NF-κB and AP-1-binding sites. Briefly, cells are seeded into Greiner 384 well plates (15000 cells per well for TLR7, 20,000 for TLR8 and 25,000 for TLR9) and then treated with test compounds in DMSO to yield a final dose response concentration range of 0.05 nM-50 μM. After a 30 minute compound pre-treatment at room temperature, the cells are then stimulated with a TLR7 ligand (gardiquimod at a final concentration of 7.5 μM), TLR8 ligand (R848 at a final concentration of 15.9 μM) or TLR9 ligand (ODN2006 at a final concentration of 5 nM) to activate NF-κB and AP-1 which induce the production of SLA After a 22 hour incubation at 37° C., […], SEAP levels are determined with the addition of HEK-Blue™ Detection reagent (Invivogen), a cell culture medium that allows for detection of SLAP, according to manufacturer's specifications. The percent inhibition is determined as the % reduction in the HEK-Blue signal present in wells treated with agonist plus DMSO alone compared to wells treated with a known inhibitor.

human TLR8 = target: T2, human TLR8 (Homo sapiens, UniProt Q9NR97); experiment: TLR8 inhibition reporter assay (HEK-Blue cells, SEAP reporter, R848 stimulation); details: HEK-Blue cells overexpressing human TLR8, SEAP reporter, R848 15.9 μM
T2 construct: host or cells: HEK-Blue cells
T2 sequence (Q9NR97 27-1041): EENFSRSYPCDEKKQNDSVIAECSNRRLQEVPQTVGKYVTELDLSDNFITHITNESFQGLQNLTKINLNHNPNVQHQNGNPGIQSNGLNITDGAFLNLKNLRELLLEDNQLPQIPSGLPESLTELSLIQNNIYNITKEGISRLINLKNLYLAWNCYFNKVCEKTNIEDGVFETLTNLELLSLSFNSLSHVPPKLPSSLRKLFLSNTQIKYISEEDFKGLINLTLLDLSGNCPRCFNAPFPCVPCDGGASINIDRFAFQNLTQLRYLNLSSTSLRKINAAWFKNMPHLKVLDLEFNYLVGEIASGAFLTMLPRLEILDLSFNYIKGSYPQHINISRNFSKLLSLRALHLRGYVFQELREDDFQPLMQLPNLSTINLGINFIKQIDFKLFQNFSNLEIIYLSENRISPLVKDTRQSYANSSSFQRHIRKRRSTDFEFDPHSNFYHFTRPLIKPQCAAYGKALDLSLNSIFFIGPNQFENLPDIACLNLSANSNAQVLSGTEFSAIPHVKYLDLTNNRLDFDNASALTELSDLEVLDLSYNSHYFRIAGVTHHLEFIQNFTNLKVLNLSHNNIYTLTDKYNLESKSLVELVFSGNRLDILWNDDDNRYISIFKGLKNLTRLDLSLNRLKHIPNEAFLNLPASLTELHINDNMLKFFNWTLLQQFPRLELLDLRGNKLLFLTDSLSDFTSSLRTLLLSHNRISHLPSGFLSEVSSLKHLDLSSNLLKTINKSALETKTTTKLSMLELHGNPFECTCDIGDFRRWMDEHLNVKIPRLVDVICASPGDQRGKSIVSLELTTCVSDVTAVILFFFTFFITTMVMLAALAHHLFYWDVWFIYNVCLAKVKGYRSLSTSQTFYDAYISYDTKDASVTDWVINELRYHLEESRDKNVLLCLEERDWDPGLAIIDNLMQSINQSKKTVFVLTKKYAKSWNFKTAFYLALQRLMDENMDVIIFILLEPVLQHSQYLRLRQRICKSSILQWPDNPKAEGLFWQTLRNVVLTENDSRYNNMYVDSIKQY
Procedure: as §1, §2

human TLR7 = target: T3, human TLR7 (Homo sapiens, UniProt Q9NYK1); experiment: TLR7 inhibition reporter assay (HEK-Blue cells, SEAP reporter, gardiquimod stimulation); details: HEK-Blue cells overexpressing human TLR7, SEAP reporter, gardiquimod 7.5 μM
T3 construct: host or cells: HEK-Blue cells
T3 sequence (Q9NYK1 27-1049): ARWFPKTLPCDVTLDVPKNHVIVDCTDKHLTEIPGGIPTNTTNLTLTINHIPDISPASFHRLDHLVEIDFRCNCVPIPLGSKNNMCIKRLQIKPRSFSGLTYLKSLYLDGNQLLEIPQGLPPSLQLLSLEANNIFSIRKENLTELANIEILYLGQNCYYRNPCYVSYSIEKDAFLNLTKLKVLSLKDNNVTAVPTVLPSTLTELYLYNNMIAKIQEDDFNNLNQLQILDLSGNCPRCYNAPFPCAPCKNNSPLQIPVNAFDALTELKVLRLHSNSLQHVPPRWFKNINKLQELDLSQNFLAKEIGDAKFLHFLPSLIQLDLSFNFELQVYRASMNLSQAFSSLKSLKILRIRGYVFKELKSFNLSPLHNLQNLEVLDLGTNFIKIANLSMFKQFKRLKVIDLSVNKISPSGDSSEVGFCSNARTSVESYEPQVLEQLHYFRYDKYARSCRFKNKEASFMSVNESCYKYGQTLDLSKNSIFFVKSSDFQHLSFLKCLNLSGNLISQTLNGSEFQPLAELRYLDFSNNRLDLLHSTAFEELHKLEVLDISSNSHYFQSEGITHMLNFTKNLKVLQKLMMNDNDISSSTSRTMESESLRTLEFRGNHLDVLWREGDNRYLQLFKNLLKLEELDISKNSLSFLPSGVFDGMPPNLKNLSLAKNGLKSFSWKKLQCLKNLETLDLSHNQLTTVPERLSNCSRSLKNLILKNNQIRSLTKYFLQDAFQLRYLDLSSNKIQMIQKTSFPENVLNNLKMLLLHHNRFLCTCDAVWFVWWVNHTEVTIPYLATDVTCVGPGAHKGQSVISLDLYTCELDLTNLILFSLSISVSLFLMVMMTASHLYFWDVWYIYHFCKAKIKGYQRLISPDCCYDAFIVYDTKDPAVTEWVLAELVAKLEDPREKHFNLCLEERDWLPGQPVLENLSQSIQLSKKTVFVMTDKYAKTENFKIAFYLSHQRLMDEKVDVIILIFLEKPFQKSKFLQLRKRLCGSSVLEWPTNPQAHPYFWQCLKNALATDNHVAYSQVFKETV
Procedure: as §1, §2

Compound | IC50 (human TLR9) | IC50 (human TLR8) | IC50 (human TLR7)
Cc1cc(-c2[nH]nc(C3CCC(N(C)C(=O)C4CN(C)C4)CC3)c2C(C)C)cn2ncnc12 (stereo not drawn) [Example 300, N-(4-(4-isopropyl-5-(8-methyl-[1,2,4]triazolo[1,5-a]pyridin-6-yl)-1H-pyrazol-3-yl)cyclohexyl)-N,1-dimethylazetidine-3-carboxamide] | 10100 nM | 3.24 nM | 10.7 nM
CNC(=O)c1n[nH]c(-c2cc(C)c3ncnn3c2)c1C(C)C [Example 27] | 388 nM | 2.87 nM | 29.7 nM
Cc1cc(-c2[nH]nc(-c3ccc(N)nc3)c2C(C)C)cn2ncnc12 [Example 227] | 18200 nM | 11.4 nM | 4.43 nM
CNCCN1CCC(NC(=O)c2n[nH]c(-c3cc(C)c4ncnn4c3)c2C(C)C)CC1 [Example 170] | 1760 nM | 4.65 nM | 2.38 nM
Cc1cc(-c2[nH]nc(C(=O)N(C)C3CCN(C)CC3)c2C(C)C)cn2ncnc12 [Example 6] | 1100 nM | 20.9 nM | 2.05 nM
COc1cc(-c2[nH]nc(-c3ccc(C4CN(C(=O)CN(C)C)C4)cc3)c2C(C)C)cn2ncnc12 [compound 335] | > 50000 nM | 11.1 nM | 15.5 nM
Cc1cc(-c2[nH]nc(C(=O)NC3CCN(C(=O)OC(C)(C)C)CC3)c2C(C)C)cn2ncnc12 [Example 1, tert-butyl 4-(4-isopropyl-5-(8-methyl-[1,2,4]triazolo[1,5-a]pyridin-6-yl)-1H-pyrazole-3-carboxamido)piperidine-1-carboxylate] | 760 nM | 8.14 nM | 2.01 nM
Cc1cc(-c2[nH]nc(-c3ccc(C4CCNCC4)nn3)c2C(C)C)cn2ncnc12 [Example 344] | > 50000 nM | 12.7 nM | 39 nM
Cc1cc(-c2[nH]nc(C(=O)N[C@H]3CC[C@H](NCC(C)(C)C)CC3)c2C(C)C)cn2ncnc12 [Example 106] | 14300 nM | 90.9 nM | 2.25 nM
Cc1cc(-c2[nH]nc(-c3ncc4c(n3)CCN(C3COC3)C4)c2C(C)C)cn2ncnc12 [Example 251] | 45300 nM | 2.68 nM | 10.6 nM
COc1cc(-c2[nH]nc(-c3cnc(C4CCN(CC5CCC5)CC4)cn3)c2C(C)C)cn2ncnc12 [Example 377] | > 50000 nM | 18.2 nM | 56.9 nM
COc1cc(-c2[nH]nc(-c3nc4c(s3)CN(C)CC4)c2C(C)C)cn2ncnc12 [Example 262] | 18300 nM | 17.5 nM | 23.8 nM
CCN1CC(C(=O)N(C)C2CCC(c3n[nH]c(-c4cc(C)c5ncnn5c4)c3C(C)C)CC2)C1 (single isomer, unassigned) [Example 306] | > 50000 nM | 124 nM | 148 nM
Cc1cc(-c2[nH]nc(-c3ccc(C4CCN(C5COC5)CC4)cc3)c2C(C)C)cn2ncnc12 [Example 311] | 18800 nM | > 3130 nM | 1400 nM
Cc1ncc(CN[C@H]2CC[C@H](NC(=O)c3n[nH]c(-c4cc(C)c5ncnn5c4)c3C(C)C)CC2)cn1 [Example 104] | 5600 nM | 2.81 nM | 1.98 nM
Cc1cc(-c2[nH]nc(-c3ccc(C4CCNCC4)cn3)c2C(C)C)cn2ncnc12 [Example 342] | > 50000 nM | 12.6 nM | 19.6 nM
Cc1cc(-c2[nH]nc(C(=O)N3CCC(C(N)=O)CC3)c2C(C)C)cn2ncnc12 [Example 15] | 7810 nM | 3.14 nM | 4.15 nM
CCN1CC(c2ccc(-c3n[nH]c(-c4cc(C)c5ncnn5c4)c3C(C)C)cc2)C1 [Example 325] | > 50000 nM | 0.19 nM | 19 nM
Cc1cc(-c2[nH]nc(C(=O)N[C@H]3CC[C@H](N(C)C)CC3)c2C(C)C)cn2ncnc12 [Example 82] | > 50000 nM | 43.6 nM | 4.69 nM
Cc1cc(-c2[nH]nc(C(=O)NC3CN(C(C)C)C3)c2C(C)C)cn2ncnc12 [Example 155] | > 50000 nM | 21.5 nM | 41.5 nM
CCN1CCC(c2ccc(-c3n[nH]c(-c4cc(OC)c5ncnn5c4)c3C(C)C)nc2)CC1 [Example 347, 6-(3-(5-(1-ethylpiperidin-4-yl)pyridin-2-yl)-4-isopropyl-1H-pyrazol-5-yl)-8-methoxy-[1,2,4]triazolo[1,5-a]pyridine] | > 50000 nM | 44.5 nM | 22.9 nM
